Structures can show the parent of a compound that is named as a salt.
Columns and labels:
[1] = molecular target: T1, DNA topoisomerase 1 (Homo sapiens) (UniProt P11387); test: Inhibition of human recombinant DNA topoisomerase 1 assessed as reduction in enzyme-mediated relaxation of supercoiled pBR322 plasmid DNA at 100 uM in presence of 0.1% BSA by ethidium bromide staining based gel electrophoresis and UV spectroscopy relative to camptothecin
T1 sequence (whole entry): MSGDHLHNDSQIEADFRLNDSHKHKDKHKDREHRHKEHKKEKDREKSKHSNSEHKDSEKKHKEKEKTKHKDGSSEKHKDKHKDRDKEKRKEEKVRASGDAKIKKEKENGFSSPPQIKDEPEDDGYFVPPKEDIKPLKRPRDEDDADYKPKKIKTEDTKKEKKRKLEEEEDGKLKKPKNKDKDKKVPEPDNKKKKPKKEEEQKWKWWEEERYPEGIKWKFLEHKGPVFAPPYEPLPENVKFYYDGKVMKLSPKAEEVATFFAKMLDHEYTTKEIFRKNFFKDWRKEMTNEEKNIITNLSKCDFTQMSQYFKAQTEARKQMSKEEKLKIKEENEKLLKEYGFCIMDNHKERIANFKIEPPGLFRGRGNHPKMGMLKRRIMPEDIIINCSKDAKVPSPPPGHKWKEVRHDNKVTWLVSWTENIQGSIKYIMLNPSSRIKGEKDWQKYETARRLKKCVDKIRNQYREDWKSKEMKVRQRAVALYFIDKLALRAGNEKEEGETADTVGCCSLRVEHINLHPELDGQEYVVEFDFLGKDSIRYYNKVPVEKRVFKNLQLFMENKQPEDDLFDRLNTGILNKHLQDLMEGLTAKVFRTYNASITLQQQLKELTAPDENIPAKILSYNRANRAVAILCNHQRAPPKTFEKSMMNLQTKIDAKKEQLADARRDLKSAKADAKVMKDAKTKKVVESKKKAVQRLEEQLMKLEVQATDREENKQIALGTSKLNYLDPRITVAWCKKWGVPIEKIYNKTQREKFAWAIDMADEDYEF

Homo sapiens [2] = species on record: Homo sapiens; test: Inhibition of human recombinant DNA topoisomerase 2 assessed as reduction in enzyme-mediated relaxation of supercoiled pBR322 plasmid DNA at 20 uM in presence of 0.1% BSA by ethidium bromide staining based gel electrophoresis and UV spectroscopy relative to etoposide
HeLa = test: Antiproliferative activity against human HeLa cells after 72 hrs by CCK8 assay; type: functional, cell-based
Homo sapiens [3] = species on record: Homo sapiens; test: Inhibition of human recombinant DNA topoisomerase 2 assessed as reduction in enzyme-mediated relaxation of supercoiled pBR322 plasmid DNA at 100 uM in presence of 0.1% BSA by ethidium bromide staining based gel electrophoresis and UV spectroscopy relative to etoposide
HCT-15 = test: Antiproliferative activity against human HCT15 cells after 72 hrs by CCK8 assay; type: functional, cell-based; settings: HCT-15, 72 h
T47D = test: Antiproliferative activity against human T47D cells after 72 hrs by CCK8 assay; type: functional, cell-based
[4] = molecular target: T1, DNA topoisomerase 1 (Homo sapiens); test: Inhibition of human recombinant DNA topoisomerase 1 assessed as reduction in enzyme-mediated relaxation of supercoiled pBR322 plasmid DNA at 100 uM in presence of 0.1% BSA by ethidium bromide staining based gel electrophoresis and UV spectroscopy
Homo sapiens [5] = species on record: Homo sapiens; test: Inhibition of human recombinant DNA topoisomerase 2 assessed as reduction in enzyme-mediated relaxation of supercoiled pBR322 plasmid DNA at 20 uM in presence of 0.1% BSA by ethidium bromide staining based gel electrophoresis and UV spectroscopy
Homo sapiens [6] = species on record: Homo sapiens; test: Inhibition of human recombinant DNA topoisomerase 2 assessed as reduction in enzyme-mediated relaxation of supercoiled pBR322 plasmid DNA at 100 uM in presence of 0.1% BSA by ethidium bromide staining based gel electrophoresis and UV spectroscopy

Row | Structure (SMILES) | fold change (FC) [1] | fold change (FC) (Homo sapiens [2]) | IC50 (HeLa) [µM] | fold change (FC) (Homo sapiens [3]) | IC50 (HCT-15) [µM] | IC50 (T47D) [µM] | inhibition [4] [%] | inhibition (Homo sapiens [5]) [%] | inhibition (Homo sapiens [6]) [%]
1 | Clc1ccccc1-c1cc(-c2ccoc2)c2oc3ccccc3c2n1 | 0.63 | 0.46 | 13.3 | 1.59 | 20.6 | 19.4 | 54.6 | 14.6 | 83.2
2 | Clc1cccc(-c2cc(-c3ccccc3)c3oc4ccccc4c3n2)c1 | 0.93 | 0.4 | 37.2 | 1.26 | > 50 | 33.6 | 80.6 | 14.8 | 83
3 | Clc1ccc(-c2cc(-c3ccsc3)c3oc4ccccc4c3n2)cc1 | 0.92 | 0.32 | > 50 | 1.83 | > 50 | > 50 | 79.9 | 10.1 | 95.7
4 | Clc1ccc(-c2cc(-c3ccc(Cl)o3)c3oc4ccccc4c3n2)cc1 | 0.81 | 2.34 | 16.4 | 1.91 | > 50 | 11.4 | 98.9 | 73.7 | 100
5 | Clc1ccccc1-c1cc(-c2ccsc2)c2oc3ccccc3c2n1 | 1.15 | 2.33 | > 50 | 1.52 | 10.6 | 25.5 | 100 | 85.8 | 100
6 | Clc1ccc(-c2cc(-c3ccccc3)c3oc4ccccc4c3n2)cc1 | 1.15 | 0.48 | > 50 | 1.19 | > 50 | > 50 | 100 | 17.6 | 78.2
7 | COc1cccc2c1C(=O)c1c(O)c3c(c(O)c1C2=O)C[C@@](O)(C(=O)CO)C[C@@H]3O[C@H]1C[C@H](N)[C@H](O)[C@H](C)O1 [DOXORUBICIN HYDROCHLORIDE] | – | – | 2.77 | – | 0.94 | 1.29 | – | – | –
8 | Clc1ccc(-c2cc(-c3ccccc3Cl)nc3c2oc2ccccc23)o1 | 1.15 | 0.94 | > 50 | 1.64 | > 50 | > 50 | 100 | 29.5 | 86
9 | COc1cc([C@@H]2c3cc4c(cc3[C@@H](O[C@@H]3O[C@@H]5CO[C@@H](C)O[C@H]5[C@H](O)[C@H]3O)[C@H]3COC(=O)[C@H]23)OCO4)cc(OC)c1O [ETOPOSIDE] | – | – | 4.12 | – | 9.27 | – | – | 31.5 to 36.8 | 52.3 to 66
10 | Clc1ccc(-c2cc(-c3ccoc3)c3oc4ccccc4c3n2)cc1 | 0.95 | 2.61 | 16.6 | 1.7 | 38.6 | 18.5 | 86.5 | 82.1 | 88.7
11 | Clc1ccccc1-c1cc(-c2ccccc2)c2oc3ccccc3c2n1 | 0.38 | 0.19 | 21.7 | 0.88 | 19.4 | 19.5 | 33 | 6.9 | 58.2
12 | CC[C@@]1(O)C(=O)OCc2c1cc1n(c2=O)Cc2cc3ccccc3nc2-1 [CAMPTOTHECIN] | – | – | 2.62 | – | – | 2.31 | – | – | –
13 | Clc1cccc(-c2cc(-c3cccs3)c3oc4ccccc4c3n2)c1 | 0.98 | 0.47 | > 50 | 1.29 | 19.3 | 17.2 | 85.1 | 17.3 | 85.3
14 | Clc1cccc(-c2cc(-c3ccsc3)c3oc4ccccc4c3n2)c1 | 0.81 | 0.39 | > 50 | 1.79 | 13.5 | 13.2 | 70.2 | 12.2 | 93.8
15 | Clc1cccc(-c2cc(-c3ccco3)c3oc4ccccc4c3n2)c1 | 1.15 | 1.51 | 40.8 | 1.3 | > 50 | 23.2 | 100 | 55.4 | 85.5
16 | Clc1ccc(-c2cc(-c3cccs3)c3oc4ccccc4c3n2)cc1 | 1.15 | 0.41 | > 50 | 0.89 | > 50 | > 50 | 100 | 15.1 | 58.5
17 | Clc1cccc(-c2cc(-c3ccoc3)c3oc4ccccc4c3n2)c1 | 0.97 | 1.6 | 41.1 | 1.65 | 17.6 | 18.1 | 84.3 | 50.4 | 86.1
18 | Clc1ccccc1-c1cc(-c2ccco2)c2oc3ccccc3c2n1 | 0.99 | 0.14 | > 50 | 0.9 | 21.7 | > 50 | 86.1 | 5.1 | 59.4
19 | Clc1ccccc1-c1cc(-c2cccs2)c2oc3ccccc3c2n1 | 1.08 | 0.29 | 21.7 | 0.97 | 16.1 | > 50 | 93.4 | 10.8 | 64.1
20 | Clc1ccc(-c2cc(-c3ccco3)c3oc4ccccc4c3n2)cc1 | 1.15 | 2.2 | 36.5 | 1.46 | > 50 | 13.2 | 100 | 80.9 | 96.2
21 | Clc1cccc(-c2cc(-c3ccc(Cl)o3)c3oc4ccccc4c3n2)c1 | 1.15 | 1.13 | 18.2 | 1.86 | 5.47 | 7.47 | 100 | 35.5 | 97.3

Reference: ChEMBL document CHEMBL4052690, “2-Chlorophenyl-substituted benzofuro[3,2-b]pyridines with enhanced topoisomerase inhibitory activity: The role of the chlorine substituent” (Bioorg Med Chem Lett, 2017)
